Results on seven molecules are retold here after ChEMBL document CHEMBL1134943, “Synthesis and biological activity of retinoic acid receptor-alpha specific amides” (Bioorg Med Chem Lett, 2002).

The target of assay [1] is T1, Retinoic acid receptor alpha (Homo sapiens, UniProt P10276).
T1 sequence (P10276 whole entry): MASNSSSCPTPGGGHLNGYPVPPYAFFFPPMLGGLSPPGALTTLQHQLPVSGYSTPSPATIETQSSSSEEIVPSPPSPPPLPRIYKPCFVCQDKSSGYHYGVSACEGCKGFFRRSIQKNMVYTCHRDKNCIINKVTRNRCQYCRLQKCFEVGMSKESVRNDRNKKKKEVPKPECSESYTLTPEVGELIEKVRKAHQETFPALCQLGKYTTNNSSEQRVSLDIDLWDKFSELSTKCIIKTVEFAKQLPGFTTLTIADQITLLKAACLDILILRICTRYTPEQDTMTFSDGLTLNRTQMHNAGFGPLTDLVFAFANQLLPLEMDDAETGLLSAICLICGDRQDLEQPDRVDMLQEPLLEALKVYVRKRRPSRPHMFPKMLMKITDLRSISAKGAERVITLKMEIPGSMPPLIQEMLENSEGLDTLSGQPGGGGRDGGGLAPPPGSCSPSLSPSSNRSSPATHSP
In words: Binding affinity fo retinoic acid receptor RAR alpha.

In assay [2] the target is T1, Retinoic acid receptor alpha. In words: Effective concentration for retinoic acid receptor RAR alpha transcriptional activation. It is filed as functional.
The target in assay [3] is T2, Retinoic acid receptor beta (Homo sapiens) (UniProt P10826).
T2 sequence (whole entry): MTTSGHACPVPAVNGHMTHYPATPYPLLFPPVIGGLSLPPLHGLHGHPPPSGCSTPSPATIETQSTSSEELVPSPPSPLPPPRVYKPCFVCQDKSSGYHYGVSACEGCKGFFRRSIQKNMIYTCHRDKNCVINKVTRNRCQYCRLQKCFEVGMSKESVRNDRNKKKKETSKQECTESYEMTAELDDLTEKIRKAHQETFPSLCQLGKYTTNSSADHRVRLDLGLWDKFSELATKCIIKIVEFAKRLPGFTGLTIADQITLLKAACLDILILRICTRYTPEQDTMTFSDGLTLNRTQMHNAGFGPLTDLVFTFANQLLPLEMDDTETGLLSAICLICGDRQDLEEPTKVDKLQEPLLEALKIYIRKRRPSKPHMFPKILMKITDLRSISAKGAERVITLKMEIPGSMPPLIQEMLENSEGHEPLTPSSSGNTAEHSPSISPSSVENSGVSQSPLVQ
In words: Percent transcriptional activation of RAR beta compared to […]. Format: functional.

Assay [4] has as its target T3, Retinoic acid receptor beta (Homo sapiens, UniProt P10826).
T3 sequence (P10826 whole entry): T2 sequence (whole entry)
In words: Binding affinity for retinoic acid receptor RAR beta.

The target of assay [5] is T3, Retinoic acid receptor beta. In words: Effective concentration for retinoic acid receptor RAR beta transcriptional activation. It is filed as functional.
Assay [6] deals with T4, Retinoic acid receptor gamma (Homo sapiens, UniProt P13631).
T4 sequence (P13631 whole entry): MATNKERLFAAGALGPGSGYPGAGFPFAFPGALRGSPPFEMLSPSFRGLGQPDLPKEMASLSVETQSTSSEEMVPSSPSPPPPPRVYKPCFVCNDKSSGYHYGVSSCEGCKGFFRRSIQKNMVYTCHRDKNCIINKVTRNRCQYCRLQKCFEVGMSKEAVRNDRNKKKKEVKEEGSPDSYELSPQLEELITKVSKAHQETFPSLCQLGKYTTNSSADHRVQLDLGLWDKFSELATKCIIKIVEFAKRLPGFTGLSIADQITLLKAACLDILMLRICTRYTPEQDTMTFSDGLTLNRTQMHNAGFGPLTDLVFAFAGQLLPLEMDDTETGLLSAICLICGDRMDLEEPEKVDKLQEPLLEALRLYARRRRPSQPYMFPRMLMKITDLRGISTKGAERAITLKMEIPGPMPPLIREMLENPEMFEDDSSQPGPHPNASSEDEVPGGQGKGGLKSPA
As to the kind of experiment: Binding affinity for retinoic acid receptor RAR gamma.

The target in assay [7] is T5, Retinoic acid receptor gamma (Homo sapiens) (UniProt P13631).
T5 sequence (whole entry): T4 sequence (P13631 whole entry)
The conditions noted are these: 1 mM.

Assay [8] addresses T2, Retinoic acid receptor beta (Homo sapiens). In words: Percent transcriptional activation of RAR beta compared to […]; NA indicates […]. It is filed as functional.
Assay [9] addresses T4, Retinoic acid receptor gamma. In words: Effective concentration for retinoic acid receptor RAR gamma transcriptional activation. Format: functional.
In assay [10] the target is T5, Retinoic acid receptor gamma (Homo sapiens). In words: Percent transcriptional activation of RAR gamma compared to 1 µM ATRA.
Assay [11] addresses T6, Retinoic acid receptor alpha (Mus musculus) (UniProt P11416).
T6 sequence (whole entry): T1 sequence (P10276 whole entry) with T43S, E150D, V169A, R347K, P427S, G431T, N453H, H460Q
In words: Topical irritation induced by RAR alpha-selective retinoid Am-580 in mice. It is filed as functional.

Assay [12] concerns SK-BR-3. In words: Inhibition of ER-negative human breast cancer cell SK-BR-3 proliferation. Format: functional, cell-based.
Assay [13] concerns SK-BR-3. As to the kind of experiment: Percent inhibition of BrdU incorporation into SK-BR-3 cells. It is filed as functional, Homo sapiens. On the technique in general: Dividing cells build labelled thymidine or BrdU into new DNA.
For assay [14], the system named is T47D. In words: Percent inhibition of BrdU incorporation into T-47D cells. It is filed as functional, Homo sapiens.
The subject of assay [15] is T47D. In words: Inhibition of ER positive human breast cancer cell T-47D proliferation. Format: functional, cell-based.
Assay [16] addresses T7, Retinoic acid receptor alpha (Homo sapiens) (UniProt P10276).
T7 sequence (whole entry): T1 sequence (P10276 whole entry)
As to the kind of experiment: Percent transcriptional activation of RAR alpha compared to […]. It is filed as functional.

Changes are numbered by the printed parent chain. Activity calls are given as the source filed them. The calls are words filed in the database; no cut-off is given here.

The Kd is the free concentration of one partner at which half of the binding sites on the other are occupied at equilibrium, for simple one-to-one binding. For orientation: EC50 means the concentration that produces a half-maximal response. The low end stands for higher potency in that assay, the high end for lower potency in that assay. Regarding `CC1(C)CCC(C)(C)c2cc(C(=O)Nc3cc(F)c(C(=O)O)c(F)c3)ccc21`, the dissociation constant (Kd) in assay [1] is 0.007 µM; in assay [4], 1.47 µM; in [6], 5.6 µM. Also, the results for the EC50 in [2] and in assay [5] were 0.094 µM and greater than 1 µM, respectively. Besides, the Efficacy in assay [3] is 25%. Also, the Efficacy result in [7] is “inactive”.
Turning to `CC1(C)CCC(C)(C)c2c1cc(C(=O)Nc1cc(F)c(C(=O)O)c(F)c1)c(O)c2Br`, the Kd in [1] was 0.004 µM; in assay [4] it was 6.4 µM; in [6] it was greater than 100 µM. For the same molecule, the EC50 in assay [2] amounted to 0.29 µM. Also, the Efficacy result in assay [8] and in assay [7] was “inactive” each time.
On to `CC1(C)CCC(C)(C)c2cc(C(=O)Nc3cc(F)c(C(=O)O)c(F)c3)c(O)cc21`, for which the figures for the Kd in [1], in assay [4] and in assay [6] were 0.003 µM, greater than 100 µM and 5.6 µM, respectively. Further, the figures for the EC50 in assay [2], in [5] and in [9] were 0.112 µM, greater than 1 µM and greater than 1 µM, respectively. The Efficacy in [3] and in [10] was 10% in each case.
Regarding `CC1(C)CCC(C)(C)c2cc(C(=O)Nc3ccc(C(=O)O)cc3)ccc21`, the Efficacy in [3] came to 105%; in [10] it was 80%. Also, the Topical irritation score(0-21) in [11] turned out to be 16.
The IC50 is the concentration needed to halve the response being measured. Regarding `CC1=C(/C=C/C(C)=C/C=C/C(C)=C/C(=O)O)C(C)(C)CCC1` [TRETINOIN], the 50% inhibitory concentration (IC50) in assay [12] was found to be 0.0017 µM; in [15], 0.2 µM. Further, the Efficacy in assay [13] turned out to be 99%; in assay [14] it was 74%.
As for `CC1(C)CCC(C)(C)c2c1cc(C(=O)Nc1cc(F)c(C(=O)O)c(F)c1)c(O)c2Cl` [NRX195183], the Kd in [1] was 0.003 µM; in assay [4] it was greater than 100 µM; in assay [6], greater than 100 µM. For the same molecule, the concentration for a half-maximal effect (EC50) in assay [2] turned out to be 0.2 µM. Further, the Efficacy in assay [16] amounted to 80%; in assay [13], 93%; in assay [14], 57%. Further, the Efficacy result in assay [8] and in assay [7] was “inactive” throughout. The molecule also had a Topical irritation score(0-21) in [11] of 0. Besides, the 50% inhibitory concentration (IC50) in assay [12] turned out to be 0.011 µM; in assay [15] it was 0.0014 µM.
`CC1(C)CCC(C)(C)c2cc(C(=O)Nc3ccc(C(=O)O)c(F)c3)ccc21`: the Kd in assay [1] was 0.002 µM; in assay [4], 0.38 µM; in [6] it was 0.99 µM. Further, the results for the concentration giving a half-maximal response (EC50) in assay [2], in assay [5] and in assay [9] were 0.008 µM, 0.045 µM and 0.35 µM, respectively. For the same molecule, the Efficacy in assay [3] is 78%; in assay [10], 85%.
